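Cultured in 96-well plates, cells were exposed to test compound for 48 hours across five concentrations. At the GI50, growth is halved.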 Calls of active or inactive are those of the source. No stated cut-off is given here; in the data, active = GI50 up to about 1.1 µM and inactive = higher.
How the values were obtained:
Experiment in all cases: NCI tumour cell line growth inhibition, 48 h
[1] = test system: 786-0
[2] = test system: A498
[3] = test system: A549
[4] = test system: ACHN
[5] = test system: BT-549
[6] = test system: CAKI-1
[7] = test system: COLO 205
[8] = test system: DU-145
[9] = test system: EKVX
[10] = test system: HCT-116
[11] = test system: HCT-15
[12] = test system: HL-60
[13] = test system: HOP-62
[14] = test system: HOP-92
[15] = test system: HT-29
[16] = test system: Hs-578T
[17] = test system: IGROV-1
[18] = test system: K562
[19] = test system: KM12
[20] = test system: LOX IMVI
[21] = test system: M14
[22] = test system: MCF7
[23] = test system: MDA-MB-231
[24] = test system: MDA-MB-435
[25] = test system: MDA-N
[26] = test system: MOLT-4
[27] = test system: Malme-3M
[28] = test system: NCI-H226
[29] = test system: NCI-H23
[30] = test system: NCI-H460
[31] = test system: NCI-H522
[32] = test system: NCI/ADR-RES
[33] = test system: OVCAR-3
[34] = test system: OVCAR-4
[35] = test system: OVCAR-5
[36] = test system: OVCAR-8
[37] = test system: PC-3
[38] = test system: RPMI-8226
[39] = test system: SF-268
[40] = test system: SF-295
[41] = test system: SF-539
[42] = test system: SK-MEL-28
[43] = test system: SK-MEL-2
[44] = test system: SK-MEL-5
[45] = test system: SK-OV-3
[46] = test system: SN12C
[47] = test system: SNB-19
[48] = test system: SR
[49] = test system: SW-620
[50] = test system: T47D
[51] = test system: TK-10
[52] = test system: U-251
[53] = test system: UACC-257
[54] = test system: UACC-62
[55] = test system: UO-31

Measured: GI50

N#CC(C(=O)O)C(c1c(Cl)cccc1Cl)C(C#N)C(=O)O (stereo not given)
> 100 µM: [11]
inactive: [1] > 100 µM | [2] > 100 µM | [3] > 100 µM | [4] > 100 µM | [5] > 100 µM | [6] > 100 µM | [7] > 100 µM | [8] > 100 µM | [9] > 100 µM | [10] > 100 µM | [12] > 100 µM | [13] > 100 µM | [14] > 100 µM | [15] > 100 µM | [16] > 100 µM | [17] > 100 µM | [18] > 100 µM | [19] > 100 µM | [20] > 100 µM | [21] > 100 µM | [22] > 100 µM | [23] > 100 µM | [24] > 100 µM | [25] > 100 µM | [26] > 100 µM | [27] > 100 µM | [28] > 100 µM | [29] > 100 µM | [30] > 100 µM | [31] > 100 µM | [32] > 100 µM | [33] > 100 µM | [34] > 100 µM | [35] > 100 µM | [36] > 100 µM | [37] > 100 µM | [38] > 100 µM | [39] > 100 µM | [40] > 100 µM | [41] > 100 µM | [42] > 100 µM | [43] > 100 µM | [44] > 100 µM | [45] > 100 µM | [46] > 100 µM | [47] > 100 µM | [48] > 100 µM | [49] > 100 µM | [50] > 100 µM | [51] > 100 µM | [52] > 100 µM | [53] > 100 µM | [54] > 100 µM | [55] > 100 µM

Reference: ChEMBL document CHEMBL1201862, “PubChem BioAssay data set” (2004)
